Measurements reported in patent US6656949B1, “4-anilinofuro [3,2-c] quinoline derivatives, and preparation processes and uses of the same” (Kaohsiung Medical University, priority 2002, dated 2003).
Where a name gives a salt, the structure may show the parent alone. Read-outs that look alike come from different tables or passages of the source.

Experiments:
[1] = tested on: CCRF-CEM, HL-60 (TB), K-562, MOLT-4, RPMI-8226, and SR of leukemia; test: In vitro anticancer assay (NCI tumor cells screen), leukemia panel; type: cell-based; conditions: leukemia cell lines, read-out: GI50 (drug molar concentration causing 50% cell growth inhibition), Leukemia
[2] = tested on: A549/ATCC, EKVX, HOP-62, HOP-92, NCI-H226, NCI-H23, NCI-H322M, and NCI-H522 of non-small cell lung cancer; test: In vitro anticancer assay (NCI tumor cells screen), lung cancer panel; type: cell-based, human; conditions: non-small cell lung cancer cell lines, read-out: GI50 (drug molar concentration causing 50% cell growth inhibition), Lung Cancer
[3] = tested on: COLO 205, HCC-2998, HCT-116, HCT-15, HT29, KM12, and SW-620 of colon cancer; test: In vitro anticancer assay (NCI tumor cells screen), colon cancer panel; type: cell-based, human; conditions: colon cancer cell lines, read-out: GI50 (drug molar concentration causing 50% cell growth inhibition), Colon Cancer
[4] = tested on: SF-268, SF-295, SF-539, SNB-19, SNB-75, and U251 of CNS cancer; test: In vitro anticancer assay (NCI tumor cells screen), CNS cancer panel; type: cell-based, human; conditions: CNS cancer cell lines, read-out: GI50 (drug molar concentration causing 50% cell growth inhibition), CNS Cancer
[5] = tested on: LOX IMVI, MALME-3M, M14, SK-MEL-2, SK-MEL-28, SK-MEL-5, UACC-62, and UACC-257 of melanoma; test: In vitro anticancer assay (NCI tumor cells screen), melanoma panel; type: cell-based, human; conditions: melanoma cell lines, read-out: GI50 (drug molar concentration causing 50% cell growth inhibition), Melanoma
[6] = tested on: IGROV1, OVCAR-3, OVCAR-4, OVCAR-5, OVCAR-8, and SK-OV-3 of ovarian cancer; test: In vitro anticancer assay (NCI tumor cells screen), ovarian cancer panel; type: cell-based, human; conditions: ovarian cancer cell lines, read-out: GI50 (drug molar concentration causing 50% cell growth inhibition), Ovarian Cancer
[7] = tested on: 786-0, A498, ACHN, CAKI-1, RXF 393, SN12C, TK-10, and UO-31 of renal cancer; test: In vitro anticancer assay (NCI tumor cells screen), renal cancer panel; type: cell-based, human; conditions: renal cancer cell lines, read-out: GI50 (drug molar concentration causing 50% cell growth inhibition), Renal Cancer
[8] = tested on: PC-3 and DU-145 of prostate cancer; test: In vitro anticancer assay (NCI tumor cells screen), prostate cancer panel; type: cell-based, human; conditions: prostate cancer cell lines, read-out: GI50 (drug molar concentration causing 50% cell growth inhibition), Prostate Cancer
[9] = tested on: MCF7, MCF7/ADR-RES, MDA-MB-231/ATCC, HS 578T, MDA-MB-435, MDA-N, and T-47D of breast cancer; test: In vitro anticancer assay (NCI tumor cells screen), breast cancer panel; type: cell-based, human; conditions: breast cancer cell lines, read-out: GI50 (drug molar concentration causing 50% cell growth inhibition), Breast Cancer
[10] = tested on: 60 human tumor cell lines; test: In vitro anticancer assay (NCI tumor cells screen), mean over 60 cell lines; type: cell-based; conditions: mean values over 60 cell lines tested
[11] = tested on: UACC-257; test: In vitro anticancer assay (NCI tumor cells screen), UACC-257; type: cell-based; conditions: Homo sapiens; melanoma cell line UACC-257; read-out: GI50 against UACC-257
[12] = tested on: UACC-62; test: In vitro anticancer assay (NCI tumor cells screen), UACC-62; type: cell-based; conditions: Homo sapiens; melanoma cell line UACC-62; read-out: GI50 against UACC-62
[13] = tested on: UO-31; test: In vitro anticancer assay (NCI tumor cells screen), UO-31; type: cell-based; conditions: Homo sapiens; renal cancer cell line UO-31; read-out: GI50 against UO-31

Structure (SMILES): CON=C(C)c1cccc(Nc2nc3ccccc3c3occc23)c1 [Compound 5, 1-[3-(furo[3,2-c]quinolin-4-ylamino)phenyl]ethanone O-methyloxime]
- GI50 ([1]; Homo sapiens): 15.4 µM
- GI50 ([2]; Homo sapiens): 10.8 µM
- GI50 ([3]; Homo sapiens): 10.3 µM
- GI50 ([4]; Homo sapiens): 14.8 µM
- GI50 ([5]; Homo sapiens): 11 µM
- GI50 ([6]; Homo sapiens): 15.2 µM
- GI50 ([7]; Homo sapiens): 10.1 µM
- GI50 ([8]; Homo sapiens, DU-145): 15.2 µM
- GI50 ([9]; Homo sapiens): 13.1 µM
- GI50 ([10]; Homo sapiens): 8.78 µM
- GI50 [11]: 0.042 µM
- GI50 [12]: < 0.01 µM
- GI50 [13]: < 0.01 µM

Structure (SMILES): CON=C(C)c1cccc(Nc2nc3ccccc3c3occc23)c1 (as salt: HCl) [Compound 5, 1-[3-(furo[3,2-c]quinolin-4-ylamino)phenyl]ethanone O-methyloxime]
- melting point: 222 to 223 °C

Structure (SMILES): CC(=NO)c1cccc(Nc2nc3ccccc3c3occc23)c1 [Compound 4, 1-[3-(furo[3,2-c]quinolin-4-ylamino)phenyl]ethanone oxime]
- GI50 ([1]; Homo sapiens): 9.26 µM
- GI50 ([2]; Homo sapiens): 8.98 µM
- GI50 ([3]; Homo sapiens): 10.3 µM
- GI50 ([4]; Homo sapiens): 14.8 µM
- GI50 ([5]; Homo sapiens): 9.82 µM
- GI50 ([6]; Homo sapiens): 14.5 µM
- GI50 ([7]; Homo sapiens): 10.3 µM
- GI50 ([8]; Homo sapiens, DU-145): 12.7 µM
- GI50 ([9]; Homo sapiens): 12 µM
- GI50 ([10]; Homo sapiens): 7.8 µM
- GI50 [11]: < 0.01 µM
- GI50 [12]: < 0.01 µM
- GI50 [13]: 0.03 µM

Structure (SMILES): CC(=NO)c1cccc(Nc2nc3ccccc3c3occc23)c1 (as salt: HCl) [Compound 4, 1-[3-(furo[3,2-c]quinolin-4-ylamino)phenyl]ethanone oxime]
- melting point: 164 °C (dec.)

Structure (SMILES): CC(=O)c1cccc(Nc2nc3ccccc3c3occc23)c1 [Compound 3]
- GI50 [1]: 91.2 µM
- GI50 [2]: 15.5 µM
- GI50 [3]: 42.8 µM
- GI50 [4]: 19.1 µM
- GI50 [5]: 40.2 µM
- GI50 [6]: 28.4 µM
- GI50 [7]: 16.1 µM
- GI50 [8]: 32.5 µM
- GI50 [9]: 34 µM
- GI50 [10]: 22.5 µM
